ChEMBL document CHEMBL4699519, “Natural and Semisynthetic Chalcones as Dual FLT3 and Microtubule Polymerization Inhibitors” (J Nat Prod, 2020)
Active and inactive are the calls of the source. The calls are words filed in the database; no cut-off is given here.

Assays:
[1] = tested on: K562; experiment: Antiproliferative activity against human K562 cells assessed as reduction in cell viability at 50 uM after 72 hrs by MTS assay relative to control; assay type: functional
[2] = tested on: MV4-11; experiment: Antiproliferative activity against human MV4-11 cells assessed as reduction in cell viability at 50 uM after 72 hrs by MTS assay relative to control; assay type: functional
[3] = tested on: K562; experiment: Antiproliferative activity against human K562 cells assessed as reduction in cell viability at 25 uM after 72 hrs by MTS assay relative to control; assay type: functional
[4] = tested on: MV4-11; experiment: Antiproliferative activity against human MV4-11 cells assessed as reduction in cell viability at 25 uM after 72 hrs by MTS assay relative to control; assay type: functional
[5] = tested on: MOLM-13; experiment: Antiproliferative activity against human MOLM-13 cells assessed as reduction in cell viability after 72 hrs by MTS assay; assay type: functional
[6] = tested on: THP-1; experiment: Antiproliferative activity against human THP-1 cells assessed as reduction in cell viability after 72 hrs by MTS assay; assay type: functional
[7] = tested on: MV4-11; experiment: Antiproliferative activity against human MV4-11 cells assessed as reduction in cell viability after 72 hrs by MTS assay; assay type: functional
[8] = tested on: Receptor-type tyrosine-protein kinase FLT3 (Homo sapiens), P36888 [UNDEFINED MUTATION]; experiment: Inhibition of FLT3 ITD mutant in human MV4-11 cells assessed as inhibition of STAT5 phosphorylation at 25 to 50 uM incubated for 2 hrs by immunoblotting analysis; assay type: cell-based; details: dose microM 25-50, time 2.0 hrs
[9] = target: T1, Tubulin (Homo sapiens) (UniProt P68371+Q9H4B7+P0DPH7+P68366+Q13509+Q71U36+P04350+Q3ZCM7+P07437+P68363+Q9BQE3+Q6PEY2+Q13885+Q9BVA1+Q9BUF5); experiment: Displacement of colchicine from tubulin (unknown origin) at 25 uM after 1 hr by fluorescence assay relative to control; assay type: protein-complex assay
[10] = target: T2, Receptor-type tyrosine-protein kinase FLT3 (Homo sapiens, UniProt P36888); experiment: Inhibition of FLT3 (unknown origin) in presence of ATP
T2 sequence (P36888 whole entry): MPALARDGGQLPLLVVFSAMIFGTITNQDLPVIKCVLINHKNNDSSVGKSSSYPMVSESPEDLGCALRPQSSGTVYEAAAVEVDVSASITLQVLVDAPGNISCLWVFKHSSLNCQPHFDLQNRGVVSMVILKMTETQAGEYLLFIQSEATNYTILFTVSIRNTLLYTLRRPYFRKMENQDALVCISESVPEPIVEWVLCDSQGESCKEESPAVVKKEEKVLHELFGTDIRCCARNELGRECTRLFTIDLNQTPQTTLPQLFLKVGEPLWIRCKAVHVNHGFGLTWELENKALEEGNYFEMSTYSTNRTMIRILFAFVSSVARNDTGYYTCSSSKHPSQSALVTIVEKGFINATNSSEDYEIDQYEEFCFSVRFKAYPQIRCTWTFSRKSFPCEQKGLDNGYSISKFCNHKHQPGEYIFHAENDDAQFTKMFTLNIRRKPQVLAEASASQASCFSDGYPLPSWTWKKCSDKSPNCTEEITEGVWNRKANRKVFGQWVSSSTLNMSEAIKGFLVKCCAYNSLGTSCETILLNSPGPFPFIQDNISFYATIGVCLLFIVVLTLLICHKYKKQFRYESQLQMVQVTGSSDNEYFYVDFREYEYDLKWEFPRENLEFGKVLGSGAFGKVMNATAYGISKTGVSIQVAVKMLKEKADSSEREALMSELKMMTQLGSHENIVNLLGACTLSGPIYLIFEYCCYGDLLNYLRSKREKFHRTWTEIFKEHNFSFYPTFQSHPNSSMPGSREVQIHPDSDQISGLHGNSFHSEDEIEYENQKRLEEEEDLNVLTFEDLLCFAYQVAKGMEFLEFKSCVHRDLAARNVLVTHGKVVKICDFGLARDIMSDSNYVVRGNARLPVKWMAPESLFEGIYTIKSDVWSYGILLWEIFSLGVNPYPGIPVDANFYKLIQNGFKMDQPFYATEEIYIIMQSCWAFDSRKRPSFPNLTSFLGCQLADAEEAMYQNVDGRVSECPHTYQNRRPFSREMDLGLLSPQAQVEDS

[11] = tested on: MV4-11; experiment: Induction of apoptosis in human MV4-11 cells assessed as increase in cleaved PARP level at 0.313 to 5 uM after 24 hrs by Western blot analysis; assay type: functional, cell-based; details: dose microM 0.313-5, time 24.0 hrs
[12] = target: T1, Tubulin (Homo sapiens); experiment: Inhibition of microtubule polymerization in human MV4-11 cells assessed as increase in histone H3 phosphorylation at S10 residue at 0.78 uM after 8 hrs by Western blot analysis; assay type: cell-based
[13] = target: T1, Tubulin (Homo sapiens); experiment: Inhibition of tubulin polymerization (unknown origin) measured every 30 sec for 1 hrs in presence of GTP by turbidimetric analysis; assay type: protein-complex assay; details: dose microM 5-25, time 1.0 hrs
[14] = target: T1, Tubulin (Homo sapiens); experiment: Inhibition of microtubule repolymerization in human A549 cells at 5 uM preincubated for 30 mins followed by 10 min incubation at ice cold methanol by DAPI staining based confocal microscopic method relative to control; assay type: cell-based; details: time 40.0 min
[15] = tested on: Receptor-type tyrosine-protein kinase FLT3 (Homo sapiens), P36888 [UNDEFINED MUTATION]; experiment: Inhibition of FLT3 ITD mutant in human MV4-11 cells assessed as inhibition of ERK phosphorylation at 1.56 to 50 uM incubated for 2 hrs by immunoblotting analysis; assay type: cell-based; details: dose microM 1.56-50, time 2.0 hrs
[16] = target: T1, Tubulin (Homo sapiens); experiment: Displacement of colchicine from tubulin (unknown origin) at 50 uM after 1 hr by fluorescence assay relative to control; assay type: protein-complex assay
[17] = target: T1, Tubulin (Homo sapiens); experiment: Inhibition of microtubule polymerization in human MV4-11 cells assessed as increase in histone H3 phosphorylation at S10 residue at 0.35 to 2.5 uM after 24 hrs by propidium iodide staining based flow cytometric analysis; assay type: cell-based; details: dose microM 0.35-2.5, time 24.0 hrs
[18] = tested on: MOLM-13; experiment: Antiproliferative activity against human MOLM-13 cells harboring D835Y mutant assessed as reduction in cell viability after 72 hrs by MTS assay; assay type: functional
[19] = target: T1, Tubulin (Homo sapiens); experiment: Displacement of colchicine in tubulin (unknown origin) at 12.5 uM after 1 hr by fluorescence assay relative to control; assay type: protein-complex assay
[20] = tested on: MV4-11; experiment: Induction of apoptosis in human MV4-11 cells at 0.31 to 2.5 uM after 24 to 48 hrs by Annexin V/prpidium iodide staining based flow cytometric analysis; assay type: functional, cell-based; details: dose microM 0.31-2.5, time hrs 24-48
[21] = Selectivity ratio of GI50 for antiproliferative activity against human THP-1 cells to GI50 antiproliferative activity against human MV4-11 cells; assay type: functional
[22] = target: T1, Tubulin (Homo sapiens); experiment: Inhibition of microtubule polymerization in human HCT-116 cells assessed as increase in histone H3 phosphorylation at S10 residue at 0.78 uM after 8 hrs by Western blot analysis; assay type: cell-based
[23] = Selectivity ratio of GI50 for antiproliferative activity against human THP-1 cells to GI50 antiproliferative activity against human MOLM-13 cells; assay type: functional
[24] = tested on: Receptor-type tyrosine-protein kinase FLT3 (Homo sapiens), P36888 [UNDEFINED MUTATION]; experiment: Inhibition of FLT3 ITD mutant in human MV4-11 cells assessed as inhibition of STAT5 phosphorylation at 1.56 to 50 uM incubated for 2 hrs by immunoblotting analysis; assay type: cell-based; details: dose microM 1.56-50, time 2.0 hrs
[25] = Resistant index, ratio of GI50 for antiproliferative activity against human MOLM-13 cells harboring D835Y mutant to antiproliferative activity against human MOLM-13 cells; assay type: functional
[26] = target: T1, Tubulin (Homo sapiens); experiment: Inhibition of microtubule polymerization in human HCT-116 cells assessed as increase in histone H3 phosphorylation at S10 residue at 25 uM after 8 hrs by DOT blot analysis; assay type: cell-based
[27] = tested on: MV4-11; experiment: Induction of apoptosis in human MV4-11 cells assessed as increase in cleaved caspase-3 level at 0.313 to 5 uM after 24 hrs by Western blot analysis; assay type: functional, cell-based; details: dose microM 0.313-5, time 24.0 hrs
[28] = tested on: Receptor-type tyrosine-protein kinase FLT3 (Homo sapiens), P36888 [UNDEFINED MUTATION]; experiment: Inhibition of FLT3 ITD mutant in human MV4-11 cells assessed as inhibition of ERK phosphorylation at 25 to 50 uM incubated for 2 hrs by immunoblotting analysis; assay type: cell-based; details: dose microM 25-50, time 2.0 hrs
[29] = target: Receptor-type tyrosine-protein kinase FLT3 (Homo sapiens) (UniProt P36888); experiment: Inhibition of FLT3 (unknown origin) at 100 uM in presence of ATP relative to control

## COc1cccc(/C=C/C(=O)c2ccc(OCc3ccccc3)cc2)c1
[1]
  Activity: inactive
[2]
  Activity: inactive
[3]
  Activity: inactive
[4]
  Activity: inactive

## COc1ccc(/C=C/C(=O)c2ccc(OC)cc2O)cc1
[5]
  GI50: > 10 µM
[1]
  Activity: Active
[6]
  GI50: > 100 µM
[7]
  GI50: > 10 µM
[2]
  Activity: Active
[3]
  Activity: Active
[8]
  inhibition: Active
[4]
  Activity: Active

## C=CCOc1cc(OC)ccc1C(=O)/C=C/c1ccc(OC)cc1
[5]
  GI50: 0.2 µM
[9]
  inhibition: 80%
[10]
  IC50: 5.7 µM
[1]
  Activity: >95%
[11]
  Activity: Active
[12]
  inhibition: Active
[13]
  inhibition: Active
[6]
  GI50: 5.4 µM
[7]
  GI50: 0.24 µM
[14]
  inhibition: 100%
[2]
  Activity: >95%
[15]
  inhibition: Active
[16]
  inhibition: 87%
[3]
  Activity: >95%
[17]
  inhibition: Active
[18]
  GI50: 0.22 µM
[19]
  inhibition: 75%
[20]
  Activity: Active
[21]
  RatioGI50: >2
[22]
  inhibition: Active
[23]
  RatioGI50: >2
[4]
  Activity: >95%
[24]
  inhibition: Active
[25]
  RatioGI50: 1
[26]
  inhibition: Active
[27]
  Activity: Active

## O=C(/C=C/c1ccc(F)cc1)c1ccc(OCc2ccccc2)cc1
[1]
  Activity: inactive
[2]
  Activity: inactive
[3]
  Activity: inactive
[4]
  Activity: inactive

## O=C(/C=C/c1ccc(OCc2ccccc2)cc1)c1ccccc1
[1]
  Activity: inactive
[2]
  Activity: inactive
[3]
  Activity: inactive
[4]
  Activity: inactive

## COc1ccc(C(=O)/C=C/c2ccc(OC)c(OC)c2)c(O)c1
[5]
  GI50: 10 µM
[10]
  IC50: 13.8 µM
[1]
  Activity: Active
[6]
  GI50: > 100 µM
[7]
  GI50: > 10 µM
[2]
  Activity: Active
[3]
  Activity: Active
[8]
  inhibition: Active
[4]
  Activity: Active
[28]
  inhibition: Active

## COc1ccc(/C=C/C(=O)c2ccc3c(c2O)C=CC(C)(C)O3)cc1
[1]
  Activity: inactive
[2]
  Activity: inactive
[3]
  Activity: inactive
[4]
  Activity: inactive

## O=C(/C=C/c1ccccc1)c1ccc(OCc2ccccc2)cc1
[1]
  Activity: inactive
[2]
  Activity: inactive
[3]
  Activity: inactive
[4]
  Activity: inactive

## O=C(/C=C/c1ccc(Cl)cc1)c1ccc(OCc2ccccc2)cc1
[1]
  Activity: inactive
[2]
  Activity: inactive
[3]
  Activity: inactive
[4]
  Activity: inactive

## COC(=O)Nc1nc2cc(C(=O)c3cccs3)ccc2[nH]1
[16]
  inhibition: 93.5%

## COc1cc2c(N3CCN(C(=O)Nc4ccc(OC(C)C)cc4)CC3)ncnc2cc1OCCCN1CCCCC1 [TANDUTINIB]
[5]
  GI50: 0.052 µM
[18]
  GI50: 1.9 µM
[25]
  RatioGI50: 35.8

## COc1ccc(/C=C/C(=O)c2ccc(OCc3ccccc3)cc2)c(OC)c1OC
[1]
  Activity: inactive
[2]
  Activity: inactive
[3]
  Activity: inactive
[4]
  Activity: inactive

## O=C(/C=C/c1ccccc1Cl)c1ccc(OCc2ccccc2)cc1
[1]
  Activity: inactive
[2]
  Activity: inactive
[3]
  Activity: inactive
[4]
  Activity: inactive

## O=C(/C=C/c1ccccc1)c1ccccc1O [2'-HYDROXYCHALCONE]
[5]
  GI50: > 10 µM
[1]
  Activity: Active
[6]
  GI50: > 10 µM
[29]
  inhibition: 39.5%
[7]
  GI50: > 10 µM
[2]
  Activity: Active
[3]
  Activity: Active
[4]
  Activity: Active
[28]
  inhibition: Active
